Measurements reported in ChEMBL document CHEMBL5465560, “Selectivity Literature for EUbOPEN Chemogenomic Library” (2024).
Substitutions are numbered along the chain they refer to.

Key:
Conditions in all cases: at 1 µM
[1] = tested on: T1, Receptor-type tyrosine-protein kinase FLT3 (Homo sapiens), P36888 [K663Q]; experiment: (§1) Selectivity interaction (KinomeScan (DiscoverX)) EUB0000229b FLT3
T1 sequence (whole entry): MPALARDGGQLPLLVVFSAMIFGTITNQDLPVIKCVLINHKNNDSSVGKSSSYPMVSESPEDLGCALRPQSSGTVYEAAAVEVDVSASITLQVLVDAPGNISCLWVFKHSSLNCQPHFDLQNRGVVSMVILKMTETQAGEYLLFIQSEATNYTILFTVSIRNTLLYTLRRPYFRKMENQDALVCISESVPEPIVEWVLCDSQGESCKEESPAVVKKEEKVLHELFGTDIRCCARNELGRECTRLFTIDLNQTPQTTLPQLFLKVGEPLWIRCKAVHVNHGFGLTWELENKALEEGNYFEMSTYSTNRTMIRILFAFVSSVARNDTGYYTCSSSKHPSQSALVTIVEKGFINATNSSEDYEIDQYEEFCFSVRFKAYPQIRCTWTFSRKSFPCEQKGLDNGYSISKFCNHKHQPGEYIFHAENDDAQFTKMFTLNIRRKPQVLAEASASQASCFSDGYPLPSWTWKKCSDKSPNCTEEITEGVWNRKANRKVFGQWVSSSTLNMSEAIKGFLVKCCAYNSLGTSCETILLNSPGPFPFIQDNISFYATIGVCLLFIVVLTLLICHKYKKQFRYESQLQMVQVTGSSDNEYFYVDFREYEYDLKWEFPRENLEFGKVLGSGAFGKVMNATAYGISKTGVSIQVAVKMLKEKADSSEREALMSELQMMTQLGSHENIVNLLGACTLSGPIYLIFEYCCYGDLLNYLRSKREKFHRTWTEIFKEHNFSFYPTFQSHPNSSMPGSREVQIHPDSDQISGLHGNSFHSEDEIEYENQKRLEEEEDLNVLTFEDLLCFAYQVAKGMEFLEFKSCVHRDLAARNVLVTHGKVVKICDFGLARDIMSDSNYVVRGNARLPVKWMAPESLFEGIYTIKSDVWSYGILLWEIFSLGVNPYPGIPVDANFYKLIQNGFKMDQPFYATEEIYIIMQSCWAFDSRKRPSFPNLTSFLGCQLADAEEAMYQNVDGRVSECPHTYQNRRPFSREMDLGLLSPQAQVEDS

[2] = tested on: T2, Receptor-type tyrosine-protein kinase FLT3 (Homo sapiens), P36888 [D835Y]; experiment: as §1
T2 sequence (whole entry): T1 sequence (whole entry) with Q663K, D835Y

[3] = tested on: T3, Receptor-type tyrosine-protein kinase FLT3 (Homo sapiens), P36888 [N841I]; experiment: as §1
T3 sequence (whole entry): T1 sequence (whole entry) with Q663K, N841I

`COc1cc(N(C)c2ccnc3ccc(C(F)(F)F)cc23)cc(OC)c1OC` was tested, and the % binding [1] was 76%, the % binding [2] was 69% and the % binding [3] was 84%.
